# In patent publication US20220323536A1, “USE OF BETA-L-ASPARTYL-L-ARGININE ON SENESCENT SKIN” (SYMRISE AG, priority 2019, published 2022):
# Columns and labels:
# [1] = Solubility and stability of the powder; assay type: physicochemical
# senescent fibroblasts [2] = assay: Reduction of nucleus to cell size (N/C) ratio in senescent fibroblasts (in vitro study); assay type: cell-based; conditions: vs untreated senescent fibroblasts; FIG. 4
# Description: (§1) Senescent cells were incubated with β-L-aspartyl-L-arginine. Cell size and nuclear size were measured while cell density reflects the viability. […] See example 4 for the details of experimental procedure.
# (§2) The cells were treated with β-L-aspartyl-L-arginine for 5 days. The cell images were taken after incubation. In order to label the nuclear and mitochondrial DNA, the cells were incubated with a fluorescent dye for 30 minutes. After removal of the dye, the images were taken with an epifluorescence microscope. Image analysis was performed in a 3-fold determination. Sampling 10 pictures per experimental condition or repetition, respectively.
# (§3) Data collection: The images were taken with a Zeiss axioplan microscope. Image analysis was performed with a software developed by ICDD.
# (§4) Data interpretation: The following data was collected: average cell size, mtDNA content, mitochondrial density, mitochondrial biogenesis, mitochondrial mass and cell nucelus size. The average cell number per field was used as control of cell viability for each experimental condition. The effect of active substances was also given as protective effect in comparison to non-treated cells. The effect of the positive control was included for comparison.
# human skin explants [3] = assay: Reduction of ROS score after UVA irradiation on human skin explants (ex vivo study); assay type: cell-based; conditions: topical, 18 h incubation, vs untreated UV irradiated skin, FIG. 6
# Text: Cultivation of skin models: The skin was cut into about 8×3 mm large pieces (diameter×layer thickness of the models) and cultivated until the planned end of the experiment. Per treatment, six models each were used. The skin models were cultivated as air-liquid-interface cultures in a perforated stainless steel ring with contact to the culture medium (modified Williams 'E Medium) until the desired endpoint.
# Treatment: Test substances and controls were applied topically. To this end, the skin models were carefully cleaned with a cotton pad. Subsequently, 4 μL of each test substance or the control, respectively, were applied to the models and covered with a membrane filter (diameter=6 mm).
# The skin models were incubated for 18 h with test substance and positive control, respectively. […]
# UV-irradiation: The used sun simulator was a BIO-SUN-system from the company Vilber Lourmat. […] The UV-light emission is constantly monitored and the system stops automatically when the pre-set energy quantity is reached. […]
# Of each skin model, two samples were used for image capture with the fluorescence analysis. Each picture was analyzed by determining the fluorescence using Image-J analysis software (NIH, USA). The measured values were normalized over the size of the selected surface.
# Statistics: For each treatment of the skin models, the averages of the quantitative data was determined. […]
# human skin explants [4] = assay: Protection against carbonylation of proteins (ex vivo study); assay type: cell-based; conditions: UV stimulated skin treated with 0.2% and 0.5%, vs untreated UV stimulated skin; FIG. 9
# Description: Detection of carbonylation: After removing the fatty and connective tissue, the frozen skin samples are weighed and cut. The skin pieces of the tested samples are combined and homogenized in a cold extraction buffer. Cell lysates are collected by centrifugation.
# The measurement of the carbonylated protein is performed with the “OxyBlot Protein_Oxidation Kit by Millipore”, (#S7150) according to the protocol of the producer. Only the protein bands of a size between 50 kDa and 150 kDa were taken into account for the calculation. The obtained amount of carbonylated protein is normalized with the actin band (which is constant) and given with respect to the non-treated sample.
# fibronectin = assay: Stimulation of fibronectin proteins in the dermis (ex vivo study); assay type: cell-based; conditions: 4 μl topically every day during 6 days, vs untreated skin; FIG. 7
# Description: (§5) 4 μl of β-L-aspartyl-L-arginine were applied on the skin every day during 6 days of treatment at 37° C., 5% CO2 and 100% humidity. 12 skin cuts were immunohistochemically stained with selected antibodies. The papillary dermis was selected for the analysis because it is the part of the dermis, which changes the most in reaction to a previous treatment.
# (§6) The area to be analyzed was carefully selected while it was made sure that irregular structures such as blood vessels, sweat glands or hair follicles were avoided.
# (§7) For the assessment of the results, both, the color intensity and the color distribution were measured using Image-J analysis software (NIH, USA)—thus a semi-quantitative assessment was possible.
# senescent fibroblasts [5] = assay: Reduction of mitochondrial DNA (mtDNA) in senescent fibroblasts (in vitro study); assay type: cell-based; conditions: 5 days treatment; FIG. 5
# Description: Disruptions of the nuclear and mitochondrial DNA were studied, analyzed by detecting nucleus fragments, the mitochondrial DNA content, the mitochondrial mass and the average cell density, the latter as representation of viability.
# as §2, §3, §4
# [6] = Reduction of wrinkle intensity (clinical study); assay type: in vivo, human
# Description: (§8) The study was conducted with 26 female volunteers of age 53 +/−3 years. The application was done twice daily for two months. On one side of the face, the product is applied, on the other side the placebo.
# Imaging: The evaluation is based on high-resolution digital photography under controlled conditions. Pictures were taken at the start of the study, after 28 days and after 56 days of product application.
# The subjects were positioned in front of the optical arrangement and the face was photographed as portrait or close-up. The persons were photographed seated at controlled lighting. The conditions were kept constant during all photographs to ensure comparability.
# Reduction of wrinkles and lines: The assessment of wrinkles and lines was done in a limited area around the eye of the subject. The intensity of the wrinkles and lines was measured as parameter R. The larger the value for R, the more pronounced are the wrinkles and lines. The relative reduction of wrinkles is calculated according to the following formula:
# R%=100(Ri−RF)/Ri(R=wrinkle intensity, i=initial; f=final)
# Data analysis and interpretation: For data analysis the following software packages were used: […]
# [7] = Improvement of skin firmness and elasticity (clinical study, cutometer); assay type: in vivo, human
# Description: as §8
# The method of measurement relies on suction. A vacuum is created in the gauge head of the cutometer, which sucks the skin into the measuring device. An optical arrangement, consisting of a light source and a light detector, measures the light intensity, which enters dependent on how much skin is sucked in. The resulting parameters are elasticity and skin firmness.
# Skin firmness represents the resistance, which the skin creates against the suction by the vacuum. Elasticity, is the time, which the skin needs to return to its original state.
# senescent fibroblasts [8] = assay: Reduction of cell size in senescent fibroblasts (in vitro study); assay type: cell-based; conditions: amounts of more than 1.0 mM, vs untreated senescent fibroblasts; FIG. 3
# Description: as §1, §2, §3, §4
# collagen Typ III = assay: Stimulation of collagen Type III (ex vivo study); assay type: cell-based; conditions: vs untreated skin; FIG. 12
# Description: as §5, §6, §7
# senescent fibroblasts [9] = assay: Reduction of mitochondrial ROS in senescent fibroblasts (in vitro study); assay type: cell-based
# Description: Using a fluorescent dye, the antioxidative potential of β-L-aspartyl-L-arginine with respect to mitochondrial reactive oxygen species (ROS) was quantified. Senescent cells were incubated with β-L-aspartyl-L-arginine for 24 hours. Subsequently, the treated and non-treated senescent cells as well as the treated and non-treated non-senescent cells were incubated with the fluorescent dye for 30 minutes at 37° C. After washing, a portion of the non-senescent cells was treated with the oxidative reference substance H2O2 (100 μM). The mitochondrial ROS production was measured immediately every 5 mins over a period of 60 minutes. A microtiter plate reader (Varioskan-Thermo) was used as measuring device. During the kinetic measurement, the cells were further incubated at 37° C. Using fluorimetry, the antioxidative activity was measured in parallel with the viability of the cell. The experiments comprised a blank as well as a negative and a positive control. The positive control consists of […]. […] Senescent cells treated with resveratrol were used as reference for the comparison of the activity of β-L-aspartyl-L-arginine in the decrease of endogenous production of mitochondrial ROS in senescent cells. β-L-aspartyl-L-arginine was measured in a 4-fold measurement. […]
# [10] = after eight weeks, twice daily use of 0.1%
smiles,measurement,setting,value
N=C(N)NCCC[C@H](NC(=O)C[C@H](N)C(=O)O)C(=O)O [β-L-aspartyl-L-arginine],stability,"[1]; pH from 5 to 9, up to 50° C.",stable at a pH from 5 to 9 at up to 50 °C
same,water solubility,"[1]; white, odorless powder",water soluble
same,nucleus to cell size ratio in senescent fibroblasts,senescent fibroblasts [2],reduced compared to untreated senescent fibroblasts
same,ROS score of UV irradiated skin (dermis),human skin explants [3],significantly reduces the ROS score
same,formation of carbonylated proteins,human skin explants [4],prevent the formation of carbonylated proteins
same,fibronectin production in the dermis,fibronectin,stimulate the fibronectin production
same,mtDNA in senescent cells,senescent fibroblasts [5],reduced by β-L-aspartyl-L-arginine to an amount comparable to young replicative cells
same,volunteers with significant reduction of wrinkle intensity,[6]; [10],85%
same,reduction of wrinkle intensity compared to a placebo,"[6]; after eight weeks, twice daily use of 0.1%, 26 female volunteers",6.8%
same,wrinkles and fine lines on crow feet,"[6]; four weeks of twice daily use of 0.1%, FIG. 8",visibly smoothes wrinkles and fine lines
same,enhancement of skin elasticity compared to the placebo,[7]; [10],+8.5%
same,enhancement of skin firmness compared to the placebo,[7]; [10],+10.1%
same,volunteers with significant enhancement of skin elasticity,[7]; [10],100%
same,volunteers with significant enhancement of skin firmness,[7]; [10],92%
same,skin firmness,"[7]; four weeks of twice daily use of 0.1%, FIG. 10",visibly improves skin firmness
same,skin elasticity,"[7]; four weeks of twice daily use of 0.1%, FIG. 11",visibly improves skin elasticity
same,cell size of senescent fibroblasts,senescent fibroblasts [8],reduce cell size
same,collagen Typ III production,collagen Typ III,stimulate the collagen Typ III production
same,mitochondrial ROS (mtROS),"senescent fibroblasts [9]; 10 μM, 24 hours incubation, senescent cells vs non-treated senescent cells, FIG. 1",significant reduction of mitochondrial ROS
same,dosage dependence of the mtROS reduction effect,"senescent fibroblasts [9]; values with respect to untreated senescent cells = 100%, FIG. 2",Increasing amounts of β-L-aspartyl-L-arginine show a larger reduction
